The NIST ThermoML archive (doi:10.1016/j.jct.2016.10.009)
± gives the expanded uncertainty stated by the source.

Conditions: Liquid, Vibrating tube method

CCC(C)O (configuration not stated) [butan-2-ol]
mass density [kg/m3]
Conditions | 293.15 K | 298.15 K | 313.15 K | 333.15 K | 353.19 K | 373.24 K | 393.28 K
100 kPa | 806.7 ± 0.7 | 802.6 ± 0.7 | 789.6 ± 0.7 | 770.8 ± 0.7 | 750.3 ± 0.7 | – | –
1000 kPa | 807.4 ± 0.7 | 803.3 ± 0.7 | 790.3 ± 0.7 | 771.8 ± 0.7 | 751.4 ± 0.7 | 729.1 ± 0.7 | 704.8 ± 0.7
5000 kPa | 810.4 ± 0.7 | 806.4 ± 0.7 | 793.7 ± 0.7 | 775.7 ± 0.7 | 756 ± 0.7 | 734.5 ± 0.7 | 711.3 ± 0.7
10000 kPa | 814 ± 0.7 | 810.1 ± 0.7 | 797.8 ± 0.7 | 780.3 ± 0.7 | 761.3 ± 0.7 | 740.8 ± 0.7 | 718.8 ± 0.7
15000 kPa | 817.4 ± 0.7 | 813.7 ± 0.7 | 801.6 ± 0.7 | 784.7 ± 0.7 | 766.4 ± 0.8 | 746.6 ± 0.8 | 725.6 ± 0.8
20000 kPa | 820.7 ± 0.7 | 817 ± 0.7 | 805.3 ± 0.8 | 788.9 ± 0.8 | 771 ± 0.8 | 751.9 ± 0.8 | 731.7 ± 0.8
25000 kPa | 823.9 ± 0.8 | 820.2 ± 0.8 | 808.6 ± 0.8 | 792.7 ± 0.8 | 775.4 ± 0.8 | 757 ± 0.8 | 737.4 ± 0.8
30000 kPa | 826.9 ± 0.8 | 823.4 ± 0.8 | 812.1 ± 0.8 | 796.4 ± 0.8 | 779.5 ± 0.8 | 761.6 ± 0.8 | 742.7 ± 0.8
35000 kPa | 829.8 ± 0.8 | 826.4 ± 0.8 | 815.3 ± 0.8 | 800 ± 0.8 | 783.5 ± 0.8 | 766.1 ± 0.8 | 747.8 ± 0.8
40000 kPa | 832.7 ± 0.8 | 829.2 ± 0.8 | 818.4 ± 0.8 | 803.5 ± 0.8 | 787.2 ± 0.8 | 770.3 ± 0.8 | 752.5 ± 0.9
45000 kPa | 835.4 ± 0.8 | 832 ± 0.8 | 821.3 ± 0.8 | 806.6 ± 0.8 | 790.8 ± 0.8 | 774.4 ± 0.9 | 757 ± 0.9
50000 kPa | 838.1 ± 0.8 | 834.7 ± 0.8 | 824.3 ± 0.8 | 809.8 ± 0.8 | 794.4 ± 0.9 | 778.1 ± 0.9 | 761.2 ± 0.9
55000 kPa | 840.6 ± 0.8 | 837.4 ± 0.8 | 827.1 ± 0.8 | 812.8 ± 0.9 | 797.7 ± 0.9 | 781.8 ± 0.9 | 765.4 ± 0.9
60000 kPa | 843.2 ± 0.8 | 839.9 ± 0.8 | 829.8 ± 0.9 | 815.8 ± 0.9 | 801 ± 0.9 | 785.3 ± 0.9 | 769.2 ± 0.9
65000 kPa | 845.6 ± 0.8 | 842.4 ± 0.8 | 832.5 ± 0.9 | 818.7 ± 0.9 | 804.1 ± 0.9 | 788.8 ± 0.9 | 772.9 ± 1
70000 kPa | 848 ± 0.9 | 844.8 ± 0.9 | 835 ± 0.9 | 821.4 ± 0.9 | 807.2 ± 0.9 | 792.1 ± 1 | 776.6 ± 1
80000 kPa | 852.6 ± 0.9 | 849.5 ± 0.9 | 839.9 ± 0.9 | 826.8 ± 0.9 | 812.9 ± 1 | 798.4 ± 1 | 783.4 ± 1
90000 kPa | 857.1 ± 0.9 | 854.1 ± 0.9 | 844.7 ± 0.9 | 831.9 ± 1 | 818.3 ± 1 | 804.3 ± 1 | 789.8 ± 1.1
100000 kPa | 861.2 ± 0.9 | 858.3 ± 0.9 | 849.1 ± 1 | 836.7 ± 1 | 823.5 ± 1 | 809.8 ± 1.1 | 795.8 ± 1.1
110000 kPa | 865.3 ± 0.9 | 862.4 ± 1 | 853.5 ± 1 | 841.3 ± 1 | 828.5 ± 1.1 | 815.1 ± 1.1 | 801.5 ± 1.1
120000 kPa | 869.2 ± 1 | 866.3 ± 1 | 857.6 ± 1 | 845.6 ± 1 | 833.1 ± 1.1 | 820.1 ± 1.1 | 806.8 ± 1.2
130000 kPa | 873 ± 1 | 870.1 ± 1 | 861.5 ± 1 | 849.9 ± 1.1 | 837.6 ± 1.1 | 824.9 ± 1.2 | 811.9 ± 1.2
140000 kPa | 876.6 ± 1 | 873.9 ± 1 | 865.4 ± 1 | 853.9 ± 1.1 | 842 ± 1.1 | 829.5 ± 1.2 | 816.8 ± 1.2

CC(C)OC(C)C [diisopropyl ether]
mass density [kg/m3]
Conditions | 293.15 K | 298.15 K | 313.15 K | 333.15 K | 353.19 K | 373.24 K | 393.28 K
100 kPa | 723.5 ± 0.7 | 718.3 ± 0.7 | 702.4 ± 0.7 | 680.5 ± 0.7 | – | – | –
1000 kPa | 724.6 ± 0.7 | 719.6 ± 0.7 | 703.8 ± 0.7 | 682.1 ± 0.7 | 659.5 ± 0.7 | 635.6 ± 0.7 | 609.5 ± 0.7
5000 kPa | 729.4 ± 0.7 | 724.5 ± 0.7 | 709.4 ± 0.7 | 688.9 ± 0.7 | 667.6 ± 0.7 | 645.5 ± 0.7 | 622.1 ± 0.8
10000 kPa | 734.9 ± 0.7 | 730.2 ± 0.7 | 715.8 ± 0.7 | 696.4 ± 0.8 | 676.5 ± 0.8 | 656.1 ± 0.8 | 635 ± 0.8
15000 kPa | 740 ± 0.8 | 735.6 ± 0.8 | 721.7 ± 0.8 | 703.2 ± 0.8 | 684.4 ± 0.8 | 665.3 ± 0.8 | 645.8 ± 0.8
20000 kPa | 744.8 ± 0.8 | 740.5 ± 0.8 | 727.2 ± 0.8 | 709.4 ± 0.8 | 691.5 ± 0.8 | 673.5 ± 0.8 | 655.2 ± 0.8
25000 kPa | 749.4 ± 0.8 | 745.2 ± 0.8 | 732.1 ± 0.8 | 715.1 ± 0.8 | 698 ± 0.8 | 680.8 ± 0.8 | 663.5 ± 0.8
30000 kPa | 753.7 ± 0.8 | 749.6 ± 0.8 | 737.1 ± 0.8 | 720.5 ± 0.8 | 704 ± 0.8 | 687.6 ± 0.9 | 671.1 ± 0.9
35000 kPa | 757.7 ± 0.8 | 753.7 ± 0.8 | 741.6 ± 0.8 | 725.6 ± 0.9 | 709.7 ± 0.9 | 693.8 ± 0.9 | 677.9 ± 0.9
40000 kPa | 761.6 ± 0.8 | 757.8 ± 0.9 | 745.9 ± 0.9 | 730.3 ± 0.9 | 714.8 ± 0.9 | 699.6 ± 0.9 | 684.3 ± 0.9
45000 kPa | 765.3 ± 0.9 | 761.6 ± 0.9 | 750 ± 0.9 | 734.8 ± 0.9 | 719.7 ± 0.9 | 705 ± 0.9 | 690.2 ± 1
50000 kPa | 768.9 ± 0.9 | 765.2 ± 0.9 | 753.9 ± 0.9 | 739.1 ± 0.9 | 724.6 ± 0.9 | 710.1 ± 1 | 695.8 ± 1
55000 kPa | 772.4 ± 0.9 | 768.8 ± 0.9 | 757.7 ± 0.9 | 743.1 ± 1 | 728.9 ± 1 | 714.9 ± 1 | 701.1 ± 1
60000 kPa | 775.7 ± 0.9 | 772.2 ± 0.9 | 761.3 ± 1 | 747.1 ± 1 | 733.2 ± 1 | 719.5 ± 1 | 705.9 ± 1.1
65000 kPa | 778.9 ± 1 | 775.4 ± 1 | 764.8 ± 1 | 750.9 ± 1 | 737.2 ± 1 | 723.9 ± 1.1 | 710.6 ± 1.1
70000 kPa | 782 ± 1 | 778.6 ± 1 | 768.1 ± 1 | 754.4 ± 1 | 741.1 ± 1.1 | 728.1 ± 1.1 | 715.2 ± 1.1
80000 kPa | 787.9 ± 1 | 784.6 ± 1 | 774.4 ± 1 | 761.3 ± 1.1 | 748.4 ± 1.1 | 735.9 ± 1.1 | 723.5 ± 1.2
90000 kPa | 793.5 ± 1.1 | 790.3 ± 1.1 | 780.5 ± 1.1 | 767.7 ± 1.1 | 755.4 ± 1.2 | 743.2 ± 1.2 | 731.3 ± 1.2
100000 kPa | 798.8 ± 1.1 | 795.7 ± 1.1 | 786.1 ± 1.1 | 773.7 ± 1.2 | 761.6 ± 1.2 | 750 ± 1.2 | 738.4 ± 1.3
110000 kPa | 803.9 ± 1.1 | 800.8 ± 1.1 | 791.4 ± 1.2 | 779.4 ± 1.2 | 767.8 ± 1.3 | 756.3 ± 1.3 | 745.3 ± 1.3
120000 kPa | 808.7 ± 1.2 | 805.6 ± 1.2 | 796.5 ± 1.2 | 784.7 ± 1.3 | 773.4 ± 1.3 | 762.3 ± 1.3 | 751.4 ± 1.4
130000 kPa | 813.2 ± 1.2 | 810.3 ± 1.2 | 801.4 ± 1.3 | 789.9 ± 1.3 | 778.8 ± 1.3 | 768 ± 1.4 | 757.4 ± 1.4
140000 kPa | 817.6 ± 1.2 | 814.6 ± 1.3 | 806 ± 1.3 | 794.8 ± 1.3 | 784 ± 1.4 | 773.3 ± 1.4 | 763.1 ± 1.5
